For experiment [1], the system named is MV-4-11 cells. Description: MV-4-11 cell proliferation inhibition assay. The experiment is classed as cell-based. The settings on record: Homo sapiens, MV4-11, 144 h; six-day assay, CellTiter-Glo. Here is the method: • A. Purpose: to determine the effects of compounds on Toledo cells through a six-day cell proliferation assay. • B. Reagents and materials: • 1. Cell culture medium: RPMI 1640+10% FBS • 2. 384-well cell culture plate (Corning, item #3764) • 3. 0.4% Taipan Blue Staining Solution (Thermo Fisher, item #T10282) • 4. cell counting plate (Thermo Fisher, item #C10228) • 5. 50 ml reagent reservoir (Corning, item #4870) • 6. 50 ml conical sterile polypropylene centrifuge tube (Thermo Fisher, item #339653) • 7. Automatic cell counter (Thermo Fisher, item #AMQAX1000) • 8. CellTiter-Glo Luminescent Cell Viability Detection Reagent (Promega, item #G7572) • 9. SpectraMax i3x Multi-Mode Enzyme Labeling Instrument (Megaman Molecular Instruments, item #5024062) • C. Experimental method • 1. Resuspending the cells with a pipette. • 2. 0.4% Taipan blue staining solution and Toledo cells were mixed in equal proportion, and the cells were counted using an automatic cell counter. • 3. Toledo cells were diluted to a final concentration of 2000 cells per well and transferred to a 50 ml reagent reservoir. • 4. Diluted Toledo cells were added to a 384-well cell culture plate, 40 ul per well. • 5. The cells were shortly centrifuged and settled. • 6. The cells were incubated in a 37° C., 5% CO2 cell culture incubator. • 7. The substrate in the CellTiter-Glo Luminescent Cell Viability Detection Reagent was mixed with the solution. • 8. After six days, the 384-well cell culture plate was taken from the incubator and 20 ul of configured CellTiter-Glo reagent was added to each well. • 9. 384-well cell culture platewasmixed in an orbital shaker for 30 minutes. • 10. Signal of luminescence was detected with a SpectraMax i3x multi-mode enzyme labeling instrument.
Similar to the Toledo cell proliferation inhibition assay method, the difference was that MV-4-11 cells were used and the cell culture medium was IMDM+10% FBS; in step 3 of the assay method 250 cells per well was used instead;
For orientation: ATP-based viability assays read luminescence as a measure of living cells.

Experiment [2] deals with PRMT1 (Homo sapiens, UniProt Q99873). Kind of experiment: PRMT1 enzyme activity test. The experiment is classed as biochemical. The settings on record: 0.5 nM PRMT1, 3H-SAM, peptide. In outline:
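Radiometric methylation assay: 0.5 nM PRMT1 preincubated 15 min at room temperature with compound (10-point 3-fold series, 1% DMSO) in pH 8.0 Tris buffer with Tween-20 and DTT. 0.25 uM ³H-SAM and 0.1 uM biotinylated peptide then reacted 120 min. Product captured on streptavidin FlashPlate and counted; IC50 from four-parameter fit of % inhibition.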

Sequence of PRMT1 (Q99873 whole entry): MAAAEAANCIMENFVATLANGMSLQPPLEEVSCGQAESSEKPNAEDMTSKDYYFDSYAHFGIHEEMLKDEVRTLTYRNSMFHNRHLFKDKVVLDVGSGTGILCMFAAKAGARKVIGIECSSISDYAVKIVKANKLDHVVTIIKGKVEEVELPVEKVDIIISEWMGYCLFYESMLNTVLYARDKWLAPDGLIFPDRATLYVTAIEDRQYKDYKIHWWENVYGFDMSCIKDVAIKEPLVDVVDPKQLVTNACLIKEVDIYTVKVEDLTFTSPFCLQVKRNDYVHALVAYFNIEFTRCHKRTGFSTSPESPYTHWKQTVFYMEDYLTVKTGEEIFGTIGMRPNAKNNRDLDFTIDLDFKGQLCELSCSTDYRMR

The IC50 is the point on the concentration scale where inhibition reaches its midpoint. Read a high IC50 as a need for much substance. For `CNCCN(C)Cc1cnc2[nH]ncc2c1C1CCN(c2cccc(C)c2)CC1` [P409], the IC50 was less than 1000 nM in experiment [1] and 50 to 500 nM in experiment [2].

The record behind these values is patent US20240307409A1, “ARGININE METHYLTRANSFERASE INHIBITOR AND USE THEREOF” (Cytosinlab Therapeutics Co., Ltd., priority 2021, published 2024).
